# Reference: US20240018147A1, “SALT OF COMPOUND FOR DEGRADING BTK, CRYSTAL FORM THEREOF, AND USE THEREOF IN MEDICINE” (HAISCO PHARMACEUTICALS PTE. LTD., priority 2020, published 2024)
# Experiments:
# [1] = biological target: BTK (Homo sapiens (Human), UniProt Q06187); test: Detection of BTK degradation in Mino cells; type: cell-based
# Description: The Mino human mantle cell lymphoma cell line was purchased from ATCC and cultured under conditions of RPMI-1640+15% FBS+1% double antibody in a 37° C., 5% CO2 incubator. Cells were plated in a 6-well plate, with 5×10^5 cells/well. After plating, compounds at different concentrations were added and cultured in a 37° C., 5% CO2 incubator for 48 h. After culturing, the cells were collected. The cells were lysed on ice for 15 minutes by adding RIPA lysis buffer (Beyotime, Cat. P0013B) and centrifuged at 12000 rpm at 4° C. for 10 minutes. The protein sample of the supernatant was collected, subjected to protein quantification by using a BCA kit (Beyotime, Cat. P0009) and then diluted to 0.25 mg/mL. The expressions of BTK (CST, Cat. 85475) and the internal reference β-actin (CST, Cat. 37005) were detected using a fully automated western blot quantitative analyzer (Proteinsimple) with a kit (Protein simple, Cat. SM-W004). The expression level of BTK relative to the internal reference was calculated by using Compass software, and the DC50 value was calculated by using Origen9.2 software according to formula (1). Specifically, the BTKadministration denoted the expression level of BTK in administration groups at different doses, and the BTKvehicle denoted the expression level of BTK in the vehicle control group.
# BTK %=BTKadministration/BTKvehicle×100 formula (1)
# [2] = biological target: BTK protein (Mus musculus (Mouse), UniProt P35991); test: Detection of BTK protein degradation in spleen of mice; type: in vivo; conditions: female ICR mice, intragastric, 3 consecutive days; conclusion in words
# BTK protein, sequence (P35991 whole entry): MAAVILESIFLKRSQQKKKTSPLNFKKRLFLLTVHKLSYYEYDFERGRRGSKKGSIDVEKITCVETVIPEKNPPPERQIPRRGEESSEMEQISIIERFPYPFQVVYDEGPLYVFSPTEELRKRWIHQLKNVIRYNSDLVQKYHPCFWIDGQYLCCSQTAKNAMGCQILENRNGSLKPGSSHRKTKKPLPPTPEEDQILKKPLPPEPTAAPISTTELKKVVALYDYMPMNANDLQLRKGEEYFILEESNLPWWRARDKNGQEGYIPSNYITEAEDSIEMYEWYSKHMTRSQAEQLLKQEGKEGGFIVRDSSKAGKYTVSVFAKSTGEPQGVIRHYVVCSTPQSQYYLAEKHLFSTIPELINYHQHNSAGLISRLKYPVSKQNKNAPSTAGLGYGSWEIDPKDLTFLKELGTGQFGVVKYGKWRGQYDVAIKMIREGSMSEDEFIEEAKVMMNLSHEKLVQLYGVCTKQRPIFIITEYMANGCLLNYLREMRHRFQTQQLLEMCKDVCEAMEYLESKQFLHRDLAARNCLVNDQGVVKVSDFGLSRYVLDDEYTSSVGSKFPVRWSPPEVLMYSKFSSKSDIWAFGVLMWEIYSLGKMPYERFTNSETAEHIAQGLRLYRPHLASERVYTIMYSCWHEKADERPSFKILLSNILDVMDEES
# Description: Female ICR mice, 6-8 weeks old, were purchased from Beijing Vital River Laboratory Animal Technology Co., Ltd., and the experiment was started after 3 days of adaptation. After 3 consecutive days of intragastric administration of compounds at different doses, the spleens of mice were taken. The spleen cells were collected, lysed on ice for 15 min by adding RIPA lysis buffer (Beyotime, Cat. P0013B), and then centrifuged at 12000 rpm at 4° C. for 10 min. The protein sample of the supernatant was collected, subjected to protein quantification by using a BCA kit (Beyotime, Cat. P0009) and then diluted to 0.25 mg/mL. The expressions of BTK (CST, Cat. 8547S) and the internal reference R-actin (CST, Cat. 3700S) were detected by using a fully automated western blot quantitative analyzer (Proteinsimple). The expression level of BTK relative to the internal reference was calculated by using Compass software, and the DD50 value was calculated by using Origen9.2 software according to formula (2). Specifically, the BTKadministration denoted the expression level of BTK in administration groups at different doses, and the BTKvehicle denoted the expression level of BTK in the vehicle control group.
# BTK %=BTKadministration/BTKvehicle×100% formula (2)
# BTK, sequence (Q06187 whole entry): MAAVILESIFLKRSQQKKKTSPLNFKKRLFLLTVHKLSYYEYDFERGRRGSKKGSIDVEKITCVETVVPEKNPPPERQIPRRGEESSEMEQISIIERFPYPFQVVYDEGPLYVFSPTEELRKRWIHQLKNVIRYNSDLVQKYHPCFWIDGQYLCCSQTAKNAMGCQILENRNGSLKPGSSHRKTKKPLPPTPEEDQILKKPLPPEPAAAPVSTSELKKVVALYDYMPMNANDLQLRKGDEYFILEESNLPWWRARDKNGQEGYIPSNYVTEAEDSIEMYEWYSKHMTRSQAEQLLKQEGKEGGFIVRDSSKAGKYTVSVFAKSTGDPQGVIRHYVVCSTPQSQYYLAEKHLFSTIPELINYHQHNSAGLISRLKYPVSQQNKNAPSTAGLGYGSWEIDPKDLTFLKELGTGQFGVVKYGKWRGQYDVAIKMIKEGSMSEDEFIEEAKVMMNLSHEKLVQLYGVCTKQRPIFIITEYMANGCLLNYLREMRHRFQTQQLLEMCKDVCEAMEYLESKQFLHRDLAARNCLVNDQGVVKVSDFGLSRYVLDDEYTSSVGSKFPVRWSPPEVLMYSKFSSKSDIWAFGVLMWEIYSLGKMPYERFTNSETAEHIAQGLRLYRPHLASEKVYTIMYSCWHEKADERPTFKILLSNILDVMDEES
structure (smiles),measurement,setting,value
"Nc1ncnc2c1c(-c1ccc(Oc3ccccc3)cc1)nn2C1CCN(C2CCN(C3CN(c4ccc5c(c4)C(=O)N(C4CCC(=O)NC4=O)C5=O)C3)CC2)CC1 (stereo not drawn) [Compound 2, 5-(3-(4-(4-amino-3-(4-phenoxyphenyl)-1H-pyrazolo[3,4-d]pyrimidin-1-yl)-[1,4′-bipiperidin]-1′-yl)azetidin-1-yl)-2-(2,6-dioxopiperidin-3-yl)isoindoline-1,3-dione]",DC50,"[1]; Mino cells, 48 h, western blot, BTK relative to β-actin",22.9 nM
same,degradation effect on BTK in Mino cells,[1]; conclusion in words,significant degradation effect
same,degradation effect on BTK proteins in spleens of mice,[2],significant degradation effect
